Where a name gives a salt, the structure may show the parent alone. Read-outs that look alike come from different tables or passages of the source. A value given as a limit tells only on which side of the number the result lay.

Consider 14 molecules from patent publication US4873253A, “Phenylalanine derivative and proteinase inhibitor” (Okamoto; Shosuke, priority 1987, dated 1989).

The target of test [1] is T1, human plasmin (Homo sapiens, UniProt P00747). In words: Antiplasmin activity: inhibition of fibrin decomposition. Type of test: biochemical. To be noted: Table 2, pH 7.4, 37° C., read-out: Plasmin Fibrin I50 (concentration doubling fibrin dissolution time). On the procedure: (i) Determination of inhibition activity for fibrin decomposition
An inhibitor sample is dissolved in a 0.18 M borate-physiological salt buffer solution (pH=7.4) to make the total volume to 600 μl. To this buffer solution, 200 μl of a 0.2% bovine fibrinogen, 100 μl of a 0.3 casein unit/ml human plasmin solution, and 100 μl of a 50 unit/ml bovine thrombin solution, all dissolved in the above-mentioned buffer, are added at a temperature of 37° C. in a constant temperature bath. Then, the dissolution time of the fibrin mass formed above is determined.

The next test concerns the target T2, bovine thrombin (Bos taurus, UniProt P00735).
T2 construct: a 0.2 unit/ml bovine thrombin solution
In words: Antithrombin activity: inhibition of fibrin formation (fibrinogen). The test is classed as biochemical. On the procedure:
(i) Determination of inhibition activity against fibrin formation
An inhibitor sample is dissolved in a 0.18 M borate-physiological salt buffer solution (pH= 7.4) to make the total volume to 500 μl. […] Thus, a coagulation time is determined. The inhibitor concentration I50 (μmol), at which the coagulation time obtained in the absence of the inhibitor is extended twice, is determined.

Another test has as its target human urokinase (Homo sapiens, UniProt P00749). The experiment in a line: biochemical. To be noted: Table 2; substrate S-2444, pH 8.8, 37° C.; read-out: Urokinase S-2444 I50. On the procedure:
Determination of inhibition activity for S-2444 decomposition
(§1) An inhibitor sample is dissolved in a 0.05 M Tris-hydrochloric acid buffer solution (pH=8.8) to make the total volume to 400 μl. To this solution, 50 μl of a 1 mM S-2444 solution is added and the mixture is incubated at a temperature of 37° C. for 5 minutes in a constant temperature bath. Then, 50 μl of a 500 unit/ml human urokinase is added and the mixture is incubated at a temperature of 37° C. for 5 minutes. Thereafter, 50 μl of 50% acetic acid is added to terminate the reaction. The absorbance of the p-nitroaniline formed in the reaction mixture is measured at 405 nm. Thus, the concentration I50 (μmol) of the inhibitor sample, at which the absorbance is one half (i.e., 1/2) of that obtained in the absence of the inhibitor sample, is determined.

Test [2] concerns the target T1, human plasmin. The experiment in a line: Antiplasmin activity: inhibition of S-2251 decomposition. To be noted: Table 2; substrate S-2251, pH 7.4, 37° C. Type of test: biochemical. On the procedure: An inhibitor sample is dissolved in a 0.05 M Tris-hydrochloric acid buffer solution (pH=7.4) to make the total volume to 400 μl. […] Then, 50 μl of a 0.2 casein unit/ml human plasmin is added and the mixture is incubated at a temperature of 37° C. for 4 minutes. Thereafter, the reaction is stopped by adding 50 μl of 50% acetic acid.
Thus, the concentration I50 (μmol) of the inhibitor sample, at which the absorbance is one half (i.e., 1/2) of that obtained in the absence of the inhibitor, is determined.

The next test has as its target T3, bovine trypsin (Bos taurus, UniProt P00760).
T3 sequence (P00760 24-246): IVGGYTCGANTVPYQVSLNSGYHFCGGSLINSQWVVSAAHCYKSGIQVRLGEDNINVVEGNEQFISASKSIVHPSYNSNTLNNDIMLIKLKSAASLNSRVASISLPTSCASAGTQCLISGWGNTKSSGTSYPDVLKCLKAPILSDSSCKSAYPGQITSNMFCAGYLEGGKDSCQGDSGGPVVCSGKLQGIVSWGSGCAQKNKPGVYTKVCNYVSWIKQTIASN
The experiment in a line: Antitrypsin activity: inhibition of S-2238 decomposition. The test is classed as biochemical. To be noted: Table 2; substrate S-2238, pH 8.1, 37° C.; read-out: Trypsin S-2238 I50. How it is done:
Determination of inhibition activity against S-2238 decomposition
An inhibitor sample is dissolved in a 0.05 M Tris-imidazole buffer solution (pH=8.1) and 125 μl of a 1 mM S-2238 solution is added to make the total volume to 1.20 ml. The mixture is incubated at a temperature of 37° C. for 5 minutes in a constant temperature bath. To this mixture, 0.05 ml of bovine trypsin is added and the absorbance, at 405 nm, of the p-nitroaniline formed per minute is determined at a temperature of 37° C. by using the so-called initial velocity method. Thus, the concentration I50 (μmol) of a inhibitor sample, at which the absorbance is one half (i.e., 1/2) of that obtained in the absence of the inhibitor sample, is determined.

In the next test the target is human plasma kallikrein (Homo sapiens, UniProt P03952). The experiment in a line: Anti-plasma kallikrein activity: inhibition of S-2302 decomposition. Type of test: biochemical. To be noted: Table 2; substrate S-2302, pH 7.8, 37° C.; read-out: Plasma Kallikrein S-2302 I50. How it is done:
Determination of inhibition activity for S-2302 decomposition
as §1, with “solution (pH=7.8)” for “solution (pH=8.8)”, “a 2” for “a 1”, “mM S-2302” for “mM S-2444”, “a 0.12” for “a 500”, “human plasma kallikrein” for “human urokinase”

[3] abbreviates: Table 2, bovine fibrinogen, pH 7.4, 37° C., read-out: Thrombin Fibrinogen I50 (concentration doubling coagulation time).

Sequence of human plasma kallikrein (P03952 391-638 limits assumed): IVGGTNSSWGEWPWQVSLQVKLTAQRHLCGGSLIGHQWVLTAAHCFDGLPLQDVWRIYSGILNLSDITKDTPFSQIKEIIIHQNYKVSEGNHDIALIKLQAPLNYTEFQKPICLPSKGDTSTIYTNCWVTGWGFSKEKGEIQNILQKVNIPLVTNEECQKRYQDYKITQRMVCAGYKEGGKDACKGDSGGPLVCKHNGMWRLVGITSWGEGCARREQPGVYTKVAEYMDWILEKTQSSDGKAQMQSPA
Sequence of human plasma kallikrein (P03952 20-390 limits assumed): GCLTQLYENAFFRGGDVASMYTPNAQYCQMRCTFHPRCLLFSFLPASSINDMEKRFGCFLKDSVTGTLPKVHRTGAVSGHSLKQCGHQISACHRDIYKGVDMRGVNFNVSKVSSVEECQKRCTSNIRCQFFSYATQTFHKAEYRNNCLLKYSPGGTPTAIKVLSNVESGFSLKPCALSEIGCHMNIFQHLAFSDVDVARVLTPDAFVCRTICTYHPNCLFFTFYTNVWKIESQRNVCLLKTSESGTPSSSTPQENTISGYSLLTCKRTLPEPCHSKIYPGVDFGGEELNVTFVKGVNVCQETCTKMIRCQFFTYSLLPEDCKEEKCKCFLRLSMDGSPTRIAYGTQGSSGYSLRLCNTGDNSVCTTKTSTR
T1 sequence (P00747 581-810 limits assumed): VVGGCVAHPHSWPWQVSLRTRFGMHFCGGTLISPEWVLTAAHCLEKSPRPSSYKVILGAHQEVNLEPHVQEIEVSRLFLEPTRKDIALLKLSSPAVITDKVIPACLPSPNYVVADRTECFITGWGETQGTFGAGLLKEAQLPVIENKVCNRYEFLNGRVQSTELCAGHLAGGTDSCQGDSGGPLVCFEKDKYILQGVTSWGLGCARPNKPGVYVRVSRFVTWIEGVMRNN
T1 sequence (P00747 97-580 limits assumed): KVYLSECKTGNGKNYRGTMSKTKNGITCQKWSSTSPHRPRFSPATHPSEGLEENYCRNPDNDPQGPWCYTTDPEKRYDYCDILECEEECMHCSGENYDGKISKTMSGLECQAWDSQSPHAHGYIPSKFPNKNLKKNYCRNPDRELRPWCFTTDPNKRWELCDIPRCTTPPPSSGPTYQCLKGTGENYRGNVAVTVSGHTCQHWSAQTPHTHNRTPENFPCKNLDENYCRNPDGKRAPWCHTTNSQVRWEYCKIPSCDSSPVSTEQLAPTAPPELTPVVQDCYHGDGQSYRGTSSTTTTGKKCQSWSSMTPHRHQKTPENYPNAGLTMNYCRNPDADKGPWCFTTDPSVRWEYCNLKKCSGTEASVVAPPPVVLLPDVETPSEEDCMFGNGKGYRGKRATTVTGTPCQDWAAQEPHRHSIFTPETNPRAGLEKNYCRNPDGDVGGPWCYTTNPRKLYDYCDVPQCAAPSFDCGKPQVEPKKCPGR

Regarding `N=C(N)c1ccc(NC(=O)C(Cc2cccc(Oc3ccccc3)c2)NC(=O)[C@H]2CC[C@H](CN)CC2)cc1` (mixture of isomers) [Compound 5, N-(trans-4-aminomethylcyclohexylcarbonyl)-3-phenoxy-DL-phenylalanine-4-amidinoanilide dihydrochloride], the IC50 on human plasmin [1] is 12 µM; at bovine thrombin (setting [3]), over 100 µM; on human urokinase, 38 µM; on human plasmin [2] it was 22 µM; on bovine trypsin it was 2.5 µM; at human plasma kallikrein, 8.7 µM.
As for `NC[C@H]1CC[C@H](C(=O)NC(Cc2cccc(Oc3ccccc3)c2)C(=O)Nc2ncccc2C(=O)O)CC1` (mixture of isomers) [Compound 10, N-(trans-4-aminomethylcyclohexylcarbonyl)-3-phenoxy-DL-phenylalanine 2-nicotinylamide dihydrobromide], the IC50 at bovine thrombin (setting [3]) was over 125 µM; on human urokinase, over 250 µM; at bovine trypsin it was over 150 µM; at human plasma kallikrein, over 250 µM.
In the case of `COCCCNC(=O)C(Cc1cccc(Oc2ccccc2)c1)NC(=O)[C@H]1CC[C@H](CN)CC1` (mixture of isomers) [Compound 14, N-(trans-4-amnomethylcyclohexylcarboonyl)-3-phenoxy-DL-phenylalanine 3-methoxypropylamide hydrochloride], the IC50 on human plasmin [1] is 340 µM; on bovine thrombin (setting [3]), over 500 µM; at human urokinase it was over 500 µM; at human plasmin [2] it was 940 µM; at bovine trypsin, 100 µM; on human plasma kallikrein, 340 µM.
On to `NC[C@H]1CC[C@H](C(=O)NC(Cc2cccc(Oc3ccccc3)c2)C(N)=O)CC1` (mixture of isomers) [Compound 21, N-(trans-4-aminomethylcyclohexylcarbonyl)-3-phenoxy-DL-phenylalanine amide hydrochloride], for which the IC50 at human plasmin [1] is 150 µM; against bovine thrombin, over 200 µM; on human urokinase it was over 1000 µM; against human plasmin [2] it was 320 µM; on bovine trypsin, over 150 µM; at human plasma kallikrein, over 400 µM.
`NC[C@H]1CC[C@H](C(=O)NC(Cc2cccc(C(F)(F)F)c2)C(=O)N2CCOCC2)CC1` (mixture of isomers) [Compound 29, N-(trans-4-aminomethylcyclohexylcarbonyl)-3-trifluoromethyl-DL-phenylalanine morpholinoamide hydrochloride]: the IC50 on human plasmin [1] is over 1000 µM; against bovine thrombin, over 1000 µM; at human urokinase, over 1000 µM; against human plasmin [2] it was over 1000 µM; on bovine trypsin, over 150 µM; at human plasma kallikrein, over 1000 µM.
Consider `CCOC(=O)c1ccccc1NC(=O)C(Cc1cccc(Oc2ccccc2)c1)NC(=O)[C@H]1CC[C@H](CN)CC1` (mixture of isomers) [Compound 4, N-(trans-4-aminomethylcyclohexylcarbonyl)-3-phenoxy-DL-phenylalanine 2-ethoxycarbonylanilide hydrochloride], for which the IC50 was over 50 µM against bovine thrombin; over 200 µM at human urokinase; over 100 µM against human plasmin [2]; over 150 µM at bovine trypsin; over 100 µM at human plasma kallikrein.
In the case of `NC[C@H]1CC[C@H](C(=O)NC(Cc2cccc(OCc3ccccc3)c2)C(=O)Nc2cccnc2)CC1` (mixture of isomers) [Compound 22, N-(trans-4-aminomethylcyclohexylcarbonyl)-3-benzyloxy-DL-phenylalanine 3-pyridylamide dihydrochloride], the IC50 on human plasmin [1] is over 500 µM; at bovine thrombin (setting [3]), over 500 µM; against human plasmin [2], over 1000 µM; at bovine trypsin it was over 150 µM; on human plasma kallikrein, over 500 µM.
As for `CC(=O)c1ccc(NC(=O)C(Cc2cccc(Oc3ccccc3)c2)NC(=O)[C@H]2CC[C@H](CNC(=N)N)CC2)cc1` (mixture of isomers) [Compound 30, N-(trans-4-guanidinomethylcyclohexylcarbonyl)-3-phenoxy-DL-phenylalanine 4-acetylanilide methane sulfonate], the IC50 on human plasmin [1] is over 50 µM; against human plasmin [2], over 20 µM; on bovine trypsin, over 150 µM; on human plasma kallikrein it was over 10 µM.
For the molecule `CCOC(=O)C1CCN(C(=O)C(Cc2cccc(Oc3ccccc3)c2)NC(=O)c2ccc(NC(=N)N)cc2)CC1` (racemic) [Compound 34, N-(4-guanidinobenzoyl)-3-phenoxy-DL-phenylalanine 4-ethoxycarbonyl piperidinoamide methane sulfonate], the IC50 at bovine thrombin (setting [3]) was over 50 µM; at human urokinase it was over 200 µM; at bovine trypsin, over 150 µM; at human plasma kallikrein it was 270 µM.
For the molecule `N=C(N)Nc1ccc(C(=O)NC(Cc2cccc(Oc3ccccc3)c2)C(=O)N2CCC(C(=O)O)CC2)cc1` (racemic) [Compound 35, N-(4-guanidinobenzoyl)-3-phenoxy-DL-phenylalanine 4-hydroxycarbonyl piperidinoamide methane sulfonate], the IC50 is over 200 µM on human plasmin [1], over 500 µM at human plasmin [2], 240 µM on bovine trypsin and over 500 µM at human plasma kallikrein.
As to `N=C(N)Nc1ccc(C(=O)NC(Cc2cccc(Oc3ccccc3)c2)C(=O)Nc2ccc(CC(=O)O)cc2)cc1` (racemic) [Compound 36, N-(4-guanidinobenzoyl)-3-phenoxy-DL-phenylalanine 4-hydroxycarbonylmethylanilide hydrochloride], the IC50 is over 25 µM at human plasmin [1], 25 µM against human plasmin [2], 17 µM on bovine trypsin and 1.9 µM at human plasma kallikrein.
As to `NC[C@H]1CC[C@H](C(=O)NC(Cc2cccc(Oc3ccccc3)c2)C(=O)Nc2cccnc2)CC1` (stereo partly drawn) [Compound 7], the IC50 at bovine thrombin (setting [3]) is over 1000 µM; at bovine trypsin it was 15 µM; on human plasma kallikrein, 2 µM.
Regarding `NC[C@H]1CC[C@H](C(=O)NC(Cc2cccc(Oc3ccccc3)c2)C(=O)Nc2ncc[nH]2)CC1` (stereo partly drawn) [Compound 11], the IC50 was 220 µM on human plasmin [1]; over 400 µM on human urokinase; 610 µM against human plasmin [2]; 68 µM on bovine trypsin; 190 µM at human plasma kallikrein.
With `NC[C@H]1CC[C@H](C(=O)NC(Cc2cccc(Oc3ccccc3)c2)C(=O)Nc2nnn[nH]2)CC1` (stereo partly drawn) [Compound 13], the IC50 on bovine thrombin (setting [3]) is over 100 µM; on human urokinase, over 200 µM; on bovine trypsin, over 150 µM; on human plasma kallikrein, over 200 µM.
